Tests used:
[1] = target: T1, CHO cells expressing α2β1 integrin (Homo sapiens, UniProt P05556+P17301); test: Cell adhesion assay, CHO-α2 cells on collagen type I; assay type: cell-based, Chinese Hamster; conditions: for Emax at 100 µM / inhibition at 50 µM: CHO; for EC50: CHO-α2 cells, collagen type I, read-out: EC50, adhesion
T1 sequence (P17301 1-1181): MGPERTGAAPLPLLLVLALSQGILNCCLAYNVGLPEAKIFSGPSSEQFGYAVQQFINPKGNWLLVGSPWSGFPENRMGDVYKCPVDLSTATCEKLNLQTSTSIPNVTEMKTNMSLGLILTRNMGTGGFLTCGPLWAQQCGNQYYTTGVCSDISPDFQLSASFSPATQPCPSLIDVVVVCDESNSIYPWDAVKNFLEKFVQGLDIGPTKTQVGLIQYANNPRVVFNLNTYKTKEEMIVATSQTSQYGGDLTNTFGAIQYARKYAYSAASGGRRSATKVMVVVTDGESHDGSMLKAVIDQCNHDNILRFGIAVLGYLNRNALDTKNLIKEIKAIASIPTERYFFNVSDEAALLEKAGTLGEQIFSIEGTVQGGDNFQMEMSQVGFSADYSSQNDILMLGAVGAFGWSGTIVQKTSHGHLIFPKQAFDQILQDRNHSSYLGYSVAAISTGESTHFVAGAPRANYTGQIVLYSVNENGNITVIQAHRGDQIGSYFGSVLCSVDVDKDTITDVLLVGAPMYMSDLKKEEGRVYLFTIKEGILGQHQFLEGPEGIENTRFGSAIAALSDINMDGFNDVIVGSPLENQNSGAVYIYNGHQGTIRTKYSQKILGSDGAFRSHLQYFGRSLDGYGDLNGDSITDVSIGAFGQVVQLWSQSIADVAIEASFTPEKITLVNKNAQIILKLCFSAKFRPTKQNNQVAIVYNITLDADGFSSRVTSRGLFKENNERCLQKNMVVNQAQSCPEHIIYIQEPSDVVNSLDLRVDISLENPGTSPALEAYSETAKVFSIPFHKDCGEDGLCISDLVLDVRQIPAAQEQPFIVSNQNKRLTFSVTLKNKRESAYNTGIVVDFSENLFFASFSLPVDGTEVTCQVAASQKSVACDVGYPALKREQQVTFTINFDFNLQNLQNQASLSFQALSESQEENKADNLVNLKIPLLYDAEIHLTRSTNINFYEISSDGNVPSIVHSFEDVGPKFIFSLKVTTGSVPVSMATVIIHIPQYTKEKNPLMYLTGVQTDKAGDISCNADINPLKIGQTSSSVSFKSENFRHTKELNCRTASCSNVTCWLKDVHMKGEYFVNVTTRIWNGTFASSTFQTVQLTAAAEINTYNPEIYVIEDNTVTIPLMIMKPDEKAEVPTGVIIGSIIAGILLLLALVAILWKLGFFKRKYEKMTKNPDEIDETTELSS
Protocol: (§1) Chinese Hamster Ovary (CHO) cell clone expressing wild type α2 integrin was used in cell adhesion assay. Cells were suspended in serum free medium containing 0.1 mg/ml cycloheximide (Sigma) and the compounds were preincubated with the cells prior to transfer to the wells. Cells (150000/well) were allowed to attach on collagen type I coated wells (in the presence and absence of inhibitor compounds) for 2 h at +37° C. and after that non-adherent cells were removed. Fresh serum free medium was added and the living cells were detected using a cell viability kit (Roche) according to the manufacturers protocol.
(§2) For this purpose CHO cells were transfected to express α2β1 integrin on their surface as their only collagen receptor.

[2] = target: T2, CHO cells expressing α2β1 integrin (Homo sapiens, UniProt P17301); test: as above; assay type: cell-based, Chinese Hamster; conditions: FIG. 10A, 10B
T2 sequence (P17301 1-1181): T1 sequence (P17301 1-1181)
Protocol: as §1, §2

[3] = test system: CHO expressing mutated α2β1 integrin (tyrosine 285, leucine 286, leucine 296); test: Cell adhesion assay with CHO cells expressing mutated α2β1 integrin; assay type: cell-based, Chinese Hamster; conditions: data not shown
[4] = test system: platelet aggregation in whole blood; test: Platelet function analyzer PFA-100 closure time of whole blood; assay type: cell-based; conditions: PFA-100, collagen plus epinephrine; FIG. 12
Protocol: Mean and standard deviations were calculated for each treatment.

[5] = test system: PC-3 cells; test: Cell invasion assay, PC-3 cells through Matrigel; assay type: cell-based; conditions: Homo sapiens, 72 hours
Protocol: Experimental procedure. […] Inserts were stored at −20° C. […] The remaining media was aspirated. […] Inserts were allowed to dry. Fixed invaded cells were calculated under the microscope. Invasion % was calculated as a comparison to the control.

[6] = target: T3, α2 I-domain (Homo sapiens, UniProt P17301); test: Solid-phase binding assay, α2 I-domain binding to type I collagen; conditions: for inhibition of α2 I-domain binding to type I collagen (in words): FIG. 6B, 7A, 8A
T3 construct: corresponded to amino acids 124-339 of the whole α2 integrin; made in house; host or cells: E. coli BL21 (pGEX-2T)
T3 sequence (P17301 153-368): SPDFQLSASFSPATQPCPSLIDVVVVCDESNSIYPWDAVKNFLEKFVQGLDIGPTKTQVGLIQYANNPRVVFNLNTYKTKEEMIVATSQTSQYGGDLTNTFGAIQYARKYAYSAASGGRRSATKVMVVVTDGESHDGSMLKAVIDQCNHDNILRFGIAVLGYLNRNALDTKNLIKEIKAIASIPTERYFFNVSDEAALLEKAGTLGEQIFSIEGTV
Protocol: (§3) Solid-phase binding assay for α1-domains—The coating of a 96-well high binding microtiter plate (Nune) was done by exposure to 0.1 ml of PBS containing 5 μg/cm2 (15 μg/ml) collagens or 20 μg/ml triple-helical peptides overnight at +4° C. Blank wells were coated with 1:1 solution of 0.1 ml Delfia® Diluent II (Wallac) and PBS. Residual protein absorption sites on all wells were blocked with 1:1 solution of 0.1 ml Delfia® Diluent II (Wallac) and PBS. Recombinant proteins (αI-GST) were added to the coated wells at a desired concentration in Delfia® Assay Buffer and incubated for 1 h at room temperature. Europium-labelled anti-GST antibody (Wallac) was then added (typically 1:1000), and the mixture was incubated for 1 h at room temperature. All incubations mentioned above were done in the presence of 2 mM MgCl2. Delfia® enhancement solution (Wallac) was added to each well and the Europium signal was measured by time-resolved fluorometry (Victor2 multilabel counter, Wallac). At least three parallel wells were analyzed. In some cases some what modified solid-phase assay was used and it was performed according Tulla et al, 2001. It uses anti-GST and Europium-labelled protein G instead of Europium-labelled anti-GST antibody.
(§4) The tetracyclic Streptomyces compounds synthesised in Example 1, where screened for inhibition of collagen binding to α1 and α2 I-domains, using the α I-domain assay described in Example 4. […] L3015 could inhibit the binding of both α1I and α2 I-domains to type I and type IV collagen (FIG. 6B).
Based on the utilization of 3D model other compounds from the polyketide family were tested. The compounds were tested in the europium-labelled anti-GST assay described in Example 4. Tetracyclic polyketides L3007, L3008, and L3009 could inhibit α2 I-domain binding to type I collagen (FIG. 8A).

[7] = target: T3, α2 I-domain; test: Solid-phase binding assay, α2 I-domain binding to type IV collagen; conditions: FIG. 6B
Protocol: as §3, with “antibody. […]” for “antibody.”

[8] = target: T4, α1 I-domain (Homo sapiens, UniProt P56199); test: Solid-phase binding assay, α1 I-domain binding to type I collagen; conditions: FIG. 6B, 7A
T4 construct: corresponding to amino acids 123-338 of the whole α1 integrin; made in house; host or cells: E. coli BL21 (pGEX-4T-3)
T4 sequence (P56199 151-366): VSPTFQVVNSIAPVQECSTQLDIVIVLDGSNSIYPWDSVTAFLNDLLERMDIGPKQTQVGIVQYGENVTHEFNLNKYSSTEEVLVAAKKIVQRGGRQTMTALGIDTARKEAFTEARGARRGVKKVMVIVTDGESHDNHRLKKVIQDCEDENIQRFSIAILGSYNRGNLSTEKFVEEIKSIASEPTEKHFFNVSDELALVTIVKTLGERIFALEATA
Protocol: as §3, §4
Furthermore α1I and α2 I-domain binding to collagen I in the presence of lovastatin was tested in the europium-labelled anti-GST assay described in Example 4. Lovastatin is an allosteric inhibitor of leukocyte integrin α I-domains (e.g. αL I-domain), and the binding site of lovastatin represents an optional binding site for possible modulators. […] These biological tests gave further evidence that collagen receptor α I-domains are inhibited by direct blocking of the MIDAS surface by tetracyclic polyketide.

[9] = target: T4, α1 I-domain; test: Solid-phase binding assay, α1 I-domain binding to type IV collagen; conditions: FIG. 6B
Protocol: as §3, with “antibody. […]” for “antibody.”

[10] = target: T3, α2 I-domain; test: α2 I-domain binding to RKK-peptide (europium-labelled protein G assay); conditions: FIG. 7B
Protocol: as §3
RKK-peptides are known to bind to MIDAS of α2 I-domain (Ivaska et al., 1999). […]

Row | Compound | Emax at 100 µM [1] [%] | EC50 [1] [µM] | further results
1 | CN(C)CCN(c1ccc(N(C)C)cc1)S(=O)(=O)c1cccc(-c2ccc(F)cc2)c1 [Compound 354] | 89 | 29 | 
2 | CN(C)c1ccc(N(CCn2ccnc2)S(=O)(=O)c2cccc(-c3ccc(F)cc3)c2)cc1 [Compound 358] | 74 | 30 | 
3 | CN(C)c1ccc(N(CCO)S(=O)(=O)c2cccc(-c3ccc(F)cc3)c2)cc1 [Compound 359] | 67 | 39 | 
4 | CC(=O)c1ccc(NS(=O)(=O)c2cccc(-c3ccc(F)cc3)c2)cc1 [Compound 383] |  | 39 | 
5 | O=C(c1ccccc1)c1ccc(NS(=O)(=O)c2cccc(-c3ccc(F)cc3)c2)cc1 [Compound 384] | 81 | 12 | 
6 | O=S(=O)(Nc1cccc(-c2ccc(F)cc2)c1)c1ccc(Cl)cc1 [Compound 398] |  | 16 | inhibition at 50 µM [1]: 83%
7 | O=S(=O)(Nc1cccc(-c2ccc(F)cc2)c1)c1ccc(Cl)cc1Cl [Compound 403] | 86 | 37 | 
8 | O=C(c1ccccc1)c1ccc(NS(=O)(=O)c2ccc(Cl)cc2Cl)cc1 [Compound 416] | 79 | 42 | inhibition at 50 µM [1]: 44%
9 | CN(c1ccc(NC(=O)N2CCNC2=O)cc1)S(=O)(=O)c1cccc(-c2ccc(F)cc2)c1 [Compound 430] | 59 | 14 | 
10 | O=C(c1ccccc1)c1cccc(NS(=O)(=O)c2cccc(-c3ccc(F)cc3)c2)c1 [Compound 432] | 79 | 15 | 
11 | O=C(c1ccccc1)c1ccc([N-]S(=O)(=O)c2cccc(-c3ccc(F)cc3)c2)cc1.[Na+] [Compound 434] |  | 9.1 | inhibition of cell adhesion to collagen type I (in words) [2]: potent inhibitor; Emax at 100 µM ([1]; at 100 uM): 78%; effect of mutation of tyrosine 285, leucine 286, leucine 296 on the inhibitory effect in adhesion of CHO cells expressing α2β1 to collagen I [3]: significantly decreased; closure time of the blood [4]: increase the closure time
12 | O=[N+]([O-])c1ccc(NS(=O)(=O)c2cccc(-c3ccc(F)cc3)c2)cc1 [Compound 440] | 78 | 8.7 | 
13 | Cn1cccc1C(=O)Nc1ccc(NS(=O)(=O)c2cccc(-c3ccc(F)cc3)c2)cc1 [Compound 442] | 22 |  | 
14 | CCc1cc(O)c2c(O)c3c(c(O)c2c1C(=O)OC)C(=O)c1cccc(O)c1C3=O [Compound L3008, methyl 2-ethyl-4,5,7,12-tetrahydroxy-6,11-dioxonaphthacenecarboxylate] |  |  | inhibition of α2 I-domain binding to type I collagen (in words) [6]: could inhibit; effect of mutation of tyrosine 285, leucine 286, leucine 296 on the inhibitory effect in adhesion of CHO cells expressing α2β1 to collagen I [3]: significantly decreased
15 | CCc1cc(O)c2c(O)c3c(cc2c1C(=O)OC)C(=O)c1cccc(O)c1C3=O [Compound L3015, methyl 2-ethyl-4,5,7-trihydroxy-6,11 dioxonaphthacenecarboxylate] |  |  | inhibition of α2 I-domain binding to type IV collagen (in words) [7]: could inhibit; inhibition of α2 I-domain binding to type I collagen (in words) [6]: could inhibit; inhibition at 30 µM ([6]; at 0.03 mM concentration, dose dependent, FIG. 6A): ~50%; inhibition of α1 I-domain binding to type I collagen (in words) [8]: could inhibit; inhibition of α1 I-domain binding to type IV collagen (in words) [9]: could inhibit; displacement of RKK peptide at MIDAS [10]: can displace
16 | CC[C@H](C)C(=O)O[C@H]1C[C@@H](C)C=C2C=C[C@H](C)[C@H](CC[C@@H]3C[C@@H](O)CC(=O)O3)[C@H]21 [lovastatin, reference compound] |  |  | inhibition of α2 I-domain binding to type I collagen (in words) [6]: no effect; inhibition of α1 I-domain binding to type I collagen (in words) [8]: no effect
17 | methyl 2-ethyl-2,5,7,12-tetrahydroxy-4,6,11-trioxo-1,2,3-trihydronaphthacene-carboxylate [Compound L3007] |  |  | inhibition of α2 I-domain binding to type I collagen (in words) [6]: could inhibit

More lines, main results first:

Row | Emax at 100 µM [1] [%] | EC50 [1] [µM] | Compound | further results
18 | 74 | 38 | N#Cc1ccc(NS(=O)(=O)c2cccc(-c3ccc(F)cc3)c2)cc1 [Compound 448] | 
19 |  | 9.4 | O=S(=O)(Nc1ccc(C(O)c2ccccc2)cc1)c1cccc(-c2ccc(F)cc2)c1 (centres unmarked) [Compound 452] | inhibition at 50 µM [1]: 83%; EC50 [5]: 0.8 µM
